Columns and labels:
Experiment in all cases: relative viability (nuclei count vs DMSO), 5 days (fraction); higher = more cells survive
ABC-1 = tested on: ABC-1
How it was run: (§1)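 After 5 days of treatment, lung cancer cells in 1536-well plates were fixed and stained in a single step (final 0.05% Triton X-100, 1% formaldehyde, 1 ug/ml Hoechst) and their nuclei counted on 4× images. Treatment had been applied by pin tool the day after seeding as one drug alone or as a fixed anchor-drug dose with five library-drug doses (not always all listed) in √10 steps. Relative viability is the nuclei count of treated wells divided by that of vehicle wells, and values are medians of duplicate plates.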

CAL-12T = tested on: CAL-12T
How it was run: as §1

COR-L 105 = tested on: COR-L 105
How it was run: as §1

ChaGo-K-1 = tested on: ChaGo-K-1
How it was run: as §1

EKVX = tested on: EKVX
How it was run: as §1

EPLC-272H = tested on: EPLC-272H
How it was run: as §1

H3255 = tested on: H3255
How it was run: as §1

HCC-366 = tested on: HCC-366
How it was run: as §1

HCC-827 = tested on: HCC-827
How it was run: as §1

NCI-H1355 = tested on: NCI-H1355
How it was run: as §1

NCI-H1975 = tested on: NCI-H1975
How it was run: as §1

NCI-H1993 = tested on: NCI-H1993
How it was run: as §1

NCI-H2009 = tested on: NCI-H2009
How it was run: as §1

NCI-H2085 = tested on: NCI-H2085
How it was run: as §1

NCI-H2087 = tested on: NCI-H2087
How it was run: as §1

NCI-H2228 = tested on: NCI-H2228
How it was run: as §1

NCI-H2342 = tested on: NCI-H2342
How it was run: as §1

NCI-H322M = tested on: NCI-H322M
How it was run: as §1

NCI-H441 = tested on: NCI-H441
How it was run: as §1

NCI-H460 = tested on: NCI-H460
How it was run: as §1

SK-MES-1 = tested on: SK-MES-1
How it was run: as §1

For `Cc1cn(-c2cc(NC(=O)c3ccc(C)c(Nc4nccc(-c5cccnc5)n4)c3)cc(C(F)(F)F)c2)cn1` [Nilotinib] + O=C(CCCCCCC(=O)Nc1ccccc1)NO [Vorinostat] (partner 1 µM), which relative viability (ABC-1; first compound 0.001 µM) is on record?
The relative viability was 1.07.

And the relative viability (ABC-1; first compound 0.003162 µM)?
The relative viability was 1.03.

What about the relative viability (ABC-1; first compound 0.01 µM) of the same compound?
The relative viability was 1.11.

And the relative viability (ABC-1; first compound 0.03162 µM)?
Its relative viability is 1.1.

What about the relative viability (ABC-1; first compound 0.1 µM) of the same compound?
The relative viability was 0.754.

And the relative viability (CAL-12T; first compound 0.001 µM)?
The relative viability was 0.673.

And the relative viability (CAL-12T; first compound 0.003162 µM)?
Its relative viability is 0.704.

What about the relative viability (CAL-12T; first compound 0.01 µM) of the same compound?
Its relative viability is 0.994.

What about the relative viability (CAL-12T; first compound 0.03162 µM) of the same compound?
The relative viability was 0.573.

What about the relative viability (CAL-12T; first compound 0.1 µM) of the same compound?
The relative viability was 0.566.

What about the relative viability (COR-L 105; first compound 0.001 µM) of the same compound?
The relative viability was 0.744.

What about the relative viability (COR-L 105; first compound 0.003162 µM) of the same compound?
The relative viability was 1.09.

What about the relative viability (COR-L 105; first compound 0.01 µM) of the same compound?
Its relative viability is 0.81.

And the relative viability (COR-L 105; first compound 0.03162 µM)?
Its relative viability is 0.76.

What about the relative viability (COR-L 105; first compound 0.1 µM) of the same compound?
The relative viability was 0.672.

And the relative viability (ChaGo-K-1; first compound 0.001 µM)?
Its relative viability is 0.654.

What about the relative viability (ChaGo-K-1; first compound 0.003162 µM) of the same compound?
The relative viability was 0.979.

And the relative viability (ChaGo-K-1; first compound 0.01 µM)?
Its relative viability is 0.804.

What about the relative viability (ChaGo-K-1; first compound 0.03162 µM) of the same compound?
The relative viability was 0.733.

And the relative viability (ChaGo-K-1; first compound 0.1 µM)?
Its relative viability is 0.4.

And the relative viability (EKVX; first compound 0.001 µM)?
Its relative viability is 0.65.

And the relative viability (EKVX; first compound 0.003162 µM)?
The relative viability was 0.879.

And the relative viability (EKVX; first compound 0.01 µM)?
The relative viability was 0.704.

What about the relative viability (EKVX; first compound 0.03162 µM) of the same compound?
Its relative viability is 0.55.

What about the relative viability (EKVX; first compound 0.1 µM) of the same compound?
Its relative viability is 0.718.

What about the relative viability (EPLC-272H; first compound 0.001 µM) of the same compound?
The relative viability was 0.376.

And the relative viability (EPLC-272H; first compound 0.003162 µM)?
The relative viability was 0.331.

And the relative viability (EPLC-272H; first compound 0.01 µM)?
The relative viability was 0.37.

What about the relative viability (EPLC-272H; first compound 0.03162 µM) of the same compound?
Its relative viability is 0.407.

And the relative viability (EPLC-272H; first compound 0.1 µM)?
The relative viability was 0.579.

What about the relative viability (H3255; first compound 0.001 µM) of the same compound?
Its relative viability is 0.743.

What about the relative viability (H3255; first compound 0.003162 µM) of the same compound?
Its relative viability is 0.706.

What about the relative viability (H3255; first compound 0.03162 µM) of the same compound?
The relative viability was 0.764.

And the relative viability (H3255; first compound 0.1 µM)?
The relative viability was 0.429.

What about the relative viability (HCC-366; first compound 0.001 µM) of the same compound?
Its relative viability is 0.33.

What about the relative viability (HCC-366; first compound 0.003162 µM) of the same compound?
The relative viability was 0.361.

And the relative viability (HCC-366; first compound 0.01 µM)?
The relative viability was 0.364.

And the relative viability (HCC-366; first compound 0.03162 µM)?
Its relative viability is 0.27.

What about the relative viability (HCC-366; first compound 0.1 µM) of the same compound?
Its relative viability is 0.212.

And the relative viability (HCC-827; first compound 0.001 µM)?
The relative viability was 0.835.

And the relative viability (HCC-827; first compound 0.003162 µM)?
The relative viability was 0.983.

And the relative viability (HCC-827; first compound 0.03162 µM)?
The relative viability was 0.857.

What about the relative viability (HCC-827; first compound 0.1 µM) of the same compound?
The relative viability was 0.822.

What about the relative viability (NCI-H1355; first compound 0.001 µM) of the same compound?
Its relative viability is 0.6.

What about the relative viability (NCI-H1355; first compound 0.003162 µM) of the same compound?
Its relative viability is 0.695.

What about the relative viability (NCI-H1355; first compound 0.01 µM) of the same compound?
Its relative viability is 0.67.

And the relative viability (NCI-H1355; first compound 0.03162 µM)?
Its relative viability is 0.59.

And the relative viability (NCI-H1355; first compound 0.1 µM)?
Its relative viability is 0.335.

What about the relative viability (NCI-H1975; first compound 0.001 µM) of the same compound?
Its relative viability is 0.598.

What about the relative viability (NCI-H1975; first compound 0.003162 µM) of the same compound?
The relative viability was 0.742.

What about the relative viability (NCI-H1975; first compound 0.01 µM) of the same compound?
Its relative viability is 0.702.

What about the relative viability (NCI-H1975; first compound 0.03162 µM) of the same compound?
Its relative viability is 0.489.

What about the relative viability (NCI-H1975; first compound 0.1 µM) of the same compound?
Its relative viability is 0.643.

And the relative viability (NCI-H1993; first compound 0.001 µM)?
Its relative viability is 0.6.

And the relative viability (NCI-H1993; first compound 0.003162 µM)?
Its relative viability is 0.655.

And the relative viability (NCI-H1993; first compound 0.01 µM)?
The relative viability was 0.843.

What about the relative viability (NCI-H1993; first compound 0.03162 µM) of the same compound?
The relative viability was 0.722.

What about the relative viability (NCI-H1993; first compound 0.1 µM) of the same compound?
Its relative viability is 0.497.

What about the relative viability (NCI-H2009; first compound 0.001 µM) of the same compound?
Its relative viability is 0.607.

And the relative viability (NCI-H2009; first compound 0.003162 µM)?
The relative viability was 0.755.

And the relative viability (NCI-H2009; first compound 0.01 µM)?
Its relative viability is 0.743.

And the relative viability (NCI-H2009; first compound 0.03162 µM)?
The relative viability was 0.579.

What about the relative viability (NCI-H2009; first compound 0.1 µM) of the same compound?
The relative viability was 0.46.

What about the relative viability (NCI-H2085; first compound 0.001 µM) of the same compound?
Its relative viability is 0.833.

What about the relative viability (NCI-H2085; first compound 0.003162 µM) of the same compound?
The relative viability was 0.776.

What about the relative viability (NCI-H2085; first compound 0.01 µM) of the same compound?
The relative viability was 0.784.

And the relative viability (NCI-H2085; first compound 0.03162 µM)?
Its relative viability is 0.753.

And the relative viability (NCI-H2085; first compound 0.1 µM)?
The relative viability was 0.598.

What about the relative viability (NCI-H2087; first compound 0.001 µM) of the same compound?
The relative viability was 0.707.

And the relative viability (NCI-H2087; first compound 0.003162 µM)?
The relative viability was 0.709.

What about the relative viability (NCI-H2087; first compound 0.01 µM) of the same compound?
The relative viability was 1.23.

What about the relative viability (NCI-H2087; first compound 0.03162 µM) of the same compound?
Its relative viability is 0.567.

And the relative viability (NCI-H2087; first compound 0.1 µM)?
The relative viability was 0.543.

What about the relative viability (NCI-H2228; first compound 0.001 µM) of the same compound?
Its relative viability is 0.659.

What about the relative viability (NCI-H2228; first compound 0.003162 µM) of the same compound?
The relative viability was 0.616.

And the relative viability (NCI-H2228; first compound 0.01 µM)?
The relative viability was 0.594.

What about the relative viability (NCI-H2228; first compound 0.03162 µM) of the same compound?
Its relative viability is 0.501.

What about the relative viability (NCI-H2228; first compound 0.1 µM) of the same compound?
Its relative viability is 0.588.

And the relative viability (NCI-H2342; first compound 0.001 µM)?
Its relative viability is 0.675.

And the relative viability (NCI-H2342; first compound 0.003162 µM)?
Its relative viability is 0.685.

What about the relative viability (NCI-H2342; first compound 0.01 µM) of the same compound?
The relative viability was 0.668.

What about the relative viability (NCI-H2342; first compound 0.03162 µM) of the same compound?
Its relative viability is 0.681.

And the relative viability (NCI-H2342; first compound 0.1 µM)?
The relative viability was 0.655.

What about the relative viability (NCI-H322M; first compound 0.001 µM) of the same compound?
Its relative viability is 0.896.

And the relative viability (NCI-H322M; first compound 0.003162 µM)?
Its relative viability is 0.68.

What about the relative viability (NCI-H322M; first compound 0.01 µM) of the same compound?
Its relative viability is 0.962.

And the relative viability (NCI-H322M; first compound 0.03162 µM)?
The relative viability was 0.848.

And the relative viability (NCI-H322M; first compound 0.1 µM)?
Its relative viability is 0.913.

What about the relative viability (NCI-H441; first compound 0.001 µM) of the same compound?
The relative viability was 0.544.

What about the relative viability (NCI-H441; first compound 0.003162 µM) of the same compound?
Its relative viability is 1.02.

And the relative viability (NCI-H441; first compound 0.01 µM)?
The relative viability was 0.742.

What about the relative viability (NCI-H441; first compound 0.03162 µM) of the same compound?
Its relative viability is 0.532.

And the relative viability (NCI-H441; first compound 0.1 µM)?
The relative viability was 0.71.

What about the relative viability (NCI-H460; first compound 0.001 µM) of the same compound?
The relative viability was 0.428.

What about the relative viability (NCI-H460; first compound 0.003162 µM) of the same compound?
The relative viability was 0.996.

What about the relative viability (NCI-H460; first compound 0.01 µM) of the same compound?
Its relative viability is 1.34.

And the relative viability (NCI-H460; first compound 0.03162 µM)?
The relative viability was 0.33.

And the relative viability (NCI-H460; first compound 0.1 µM)?
Its relative viability is 0.535.

And the relative viability (SK-MES-1; first compound 0.001 µM)?
Its relative viability is 1.12.

What about the relative viability (SK-MES-1; first compound 0.003162 µM) of the same compound?
Its relative viability is 0.623.

What about the relative viability (SK-MES-1; first compound 0.01 µM) of the same compound?
The relative viability was 1.33.

What about the relative viability (SK-MES-1; first compound 0.03162 µM) of the same compound?
The relative viability was 0.936.

And the relative viability (SK-MES-1; first compound 0.1 µM)?
The relative viability was 0.618.
